Measured values taken from patent US20260250318A1, “COMPOSITIONS AND METHODS FOR CROSSING THE BLOOD BRAIN BARRIER” (VOYAGER THERAPEUTICS, INC., priority 2022, published 2026).

Test system: brains, heart, liver, muscle, and DRG of the NHPs
Test: Maturation of TTM-001 and TTM-002 capsids, NGS enrichment in NHP tissues
Type: in vivo
Details: NGS, relative to AAV9 control; for Fold Enrichment relative to AAV9, Liver RNA (NHP): TTM-001 and TTM-002 matured AAV capsid variants
From the text: This Example describes maturation of the AAV9 capsid variants, TTM-001 (SEQ ID NO: 981 (amino acid) and 983 (DNA), comprising SEQ ID NO: 941 (encoded by SEQ ID NO: 942)) and TTM-002 (SEQ ID NO: 982 (amino acid) and 984 (DNA), comprising SEQ ID NO: […] (encoded by SEQ ID NO: 944)) in NHPs to further enhance their transduction and biodistribution in the central nervous system as well as other tissues, and evolve the AAV capsid variants to provide further cross-species compatibility. Two approaches were used to mature the TTM-001 and TTM-002 capsid sequences in order to randomize and mutate within and around the peptide insert comprised within loop IV of the capsid variant. […] In the first maturation approach, sets of three contiguous amino acids were randomized across the mutagenesis region in the TTM-001 and TTM-002 sequences, which spanned from position 450 to position 466, numbered according to SEQ ID NO: 981 and 982. In the second maturation approach, mutagenic primers were used to introduce point mutations at a low frequency, scattered across the mutagenesis region in the TTM-001 and TTM-002 sequences ranging from position 449 to position 466, numbered according to SEQ ID NO: 981 and 982. AAV capsid variants arising from each maturation approach for TTM-001 and TTM-002 were pooled together, for subsequent testing and characterization in NHPs.
The library of pooled matured AAV capsid variants generated using the first maturation approach and the second maturation approach for the TTM-001 and TTM-002 AAV capsid variants were injected into two NHPs. […] Following RNA recovery and RT-PCR amplification, a systematic NGS enrichment analysis was performed to calculate the fold enrichment ratio relative to an AAV9 control, and the peptides comprised within the variants were identified.
Following the RNA recovery and NGS analysis from the second maturation approach, approximately 680,000 capsid variants were identified. The 680,000 matured capsid variants were then filtered based on samples with a raw virus count greater than 10 and a coefficient of variance (CV) of less than 1, which was calculated for each peptide across the brain samples taken from the two NHPs. […] Using this filtering criteria, this led to approximately 64,000 matured capsid variants.

| Sequence | Fold Enrichment relative to AAV9, DRG (NHP) | Fold Enrichment relative to AAV9, Brain (NHP) | Fold Enrichment relative to AAV9, Heart (NHP) | Fold Enrichment relative to AAV9, Liver DNA (NHP) | Fold Enrichment relative to AAV9, Liver RNA (NHP) | Fold Enrichment relative to AAV9, Muscle (NHP) |
| --- | --- | --- | --- | --- | --- | --- |
| KTINGSGSPHSKTRKQQT | 0.000 fold | 0.000 fold | 0.000 fold | 2.858 fold | 36.010 fold | 0.000 fold |
| KTINGSGSPHSKVRMQQT | 0.000 fold | 0.000 fold | 0.000 fold | 1.835 fold | 11.572 fold | 0.000 fold |
| KTINGSGSPHSKWGLQQT | 0.000 fold | 0.000 fold | 0.000 fold | 2.639 fold | 17.543 fold | 0.000 fold |
| KTINGSGSPHSKWKSQQT | 0.000 fold | 0.000 fold | 4.904 fold | 1.239 fold | 20.390 fold | 0.163 fold |
| KTINGSGSPHSKWRLQQT | 0.000 fold | 0.000 fold | 0.000 fold | 2.037 fold | 68.083 fold | 0.000 fold |
| KTINGSGSPHSKYFMQQT | 0.000 fold | 0.000 fold | 0.000 fold | 2.993 fold | 57.350 fold | 0.000 fold |
| KTINGSGSPHSLAWNQQT | 0.000 fold | 0.000 fold | 0.000 fold | 4.746 fold | 29.015 fold | 0.000 fold |
| KTINGSGSPHSLCLNQQT | 0.000 fold | 0.000 fold | 0.000 fold | 1.790 fold | 17.028 fold | 0.000 fold |
| KTINGSGSPHSLPYNQQT | 0.000 fold | 0.000 fold | 0.000 fold | 2.048 fold | 14.792 fold | 0.000 fold |
| KTINGSGSPHSLWKNQQT | 0.000 fold | 0.000 fold | 0.000 fold | 4.010 fold | 45.796 fold | 0.000 fold |
| KTINGSGSPHSLYQNQQT | 0.000 fold | 0.000 fold | 0.000 fold | 1.503 fold | 11.590 fold | 0.000 fold |
| KTINGSGSPHSLYWNQQT | 0.000 fold | 0.000 fold | 0.000 fold | 0.000 fold | 53.262 fold | 0.000 fold |
